Measurements reported in ChEMBL document CHEMBL1201862, “PubChem BioAssay data set” (2004).
Active and inactive are the calls of the source.

Legend:
[1] = microbe, parasite or virus in culture; assay type: functional; settings: Mycobacterium tuberculosis
[2] = viability of PTEN-deleted HCT116 cells – cell-based, HCT116 PTEN knockout, dose response (AID 1047); assay type: functional;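 further: HCT116 colon tumor cells with PTEN knocked out; cells exposed to compound for 60 hours before readout; potency for loss of cell viability measured by luminescence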
[3] = viability of HCT116 lacking mutant beta-catenin – cell-based, human colon tumor, dose response (AID 1045); assay type: functional;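 further: HCT116 colon tumor cells with beta catenin knocked out; cells exposed to compound for 60 hours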
[4] = test system: Streptococcus sp. 'group A'; test: Streptococcus pyogenes SK(-)GAS viability under kanamycin – luminescence, BacTiterGlo, confirmation, counter-screen for streptokinase expression inhibitor project, dose response (AID 1900); assay type: functional, organism-based
Streptokinase A = target: T1, Streptokinase A (Streptococcus pyogenes serotype M1, UniProt P10520); test: viability-normalized secreted streptokinase activity reduction – plasminogen activation absorbance, OD405, dose response (AID 1914); assay type: functional, Streptococcus pyogenes M1 GAS;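 further: secreted streptokinase activity via plasminogen activation per viability signal from cell pellet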
T1 sequence (P10520 whole entry): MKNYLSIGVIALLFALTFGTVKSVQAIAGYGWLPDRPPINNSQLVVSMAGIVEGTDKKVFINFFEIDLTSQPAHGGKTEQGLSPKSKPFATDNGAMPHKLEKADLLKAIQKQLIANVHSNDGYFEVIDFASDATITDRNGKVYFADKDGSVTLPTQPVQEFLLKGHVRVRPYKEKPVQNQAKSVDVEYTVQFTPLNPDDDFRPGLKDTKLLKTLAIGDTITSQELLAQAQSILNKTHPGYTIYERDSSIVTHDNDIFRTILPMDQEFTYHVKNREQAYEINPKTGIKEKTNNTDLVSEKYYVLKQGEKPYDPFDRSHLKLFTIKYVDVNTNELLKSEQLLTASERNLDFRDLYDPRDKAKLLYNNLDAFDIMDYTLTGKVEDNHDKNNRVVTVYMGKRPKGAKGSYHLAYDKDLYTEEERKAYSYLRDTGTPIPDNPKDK

Streptococcus = test: GAS UMAA2166 growth inhibition – luminescence, BacTiterGlo, counter-screen for streptokinase expression inhibitor project, dose response (AID 1915); assay type: functional, organism-based;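 further: potency for reduction of bacterial viability or growth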
[5] = target: T2, Short transient receptor potential channel 4 (Mus musculus, UniProt Q9QUQ5); test: block of DAMGO-driven TRPC4 calcium entry – cell-based, HEK293 TRPC4/mu-opioid, Fluo-4 calcium, dose response (AID 434942); assay type: functional;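 further: potency of inhibitors blocking the TRPC4 calcium response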
T2 sequence (Q9QUQ5 whole entry): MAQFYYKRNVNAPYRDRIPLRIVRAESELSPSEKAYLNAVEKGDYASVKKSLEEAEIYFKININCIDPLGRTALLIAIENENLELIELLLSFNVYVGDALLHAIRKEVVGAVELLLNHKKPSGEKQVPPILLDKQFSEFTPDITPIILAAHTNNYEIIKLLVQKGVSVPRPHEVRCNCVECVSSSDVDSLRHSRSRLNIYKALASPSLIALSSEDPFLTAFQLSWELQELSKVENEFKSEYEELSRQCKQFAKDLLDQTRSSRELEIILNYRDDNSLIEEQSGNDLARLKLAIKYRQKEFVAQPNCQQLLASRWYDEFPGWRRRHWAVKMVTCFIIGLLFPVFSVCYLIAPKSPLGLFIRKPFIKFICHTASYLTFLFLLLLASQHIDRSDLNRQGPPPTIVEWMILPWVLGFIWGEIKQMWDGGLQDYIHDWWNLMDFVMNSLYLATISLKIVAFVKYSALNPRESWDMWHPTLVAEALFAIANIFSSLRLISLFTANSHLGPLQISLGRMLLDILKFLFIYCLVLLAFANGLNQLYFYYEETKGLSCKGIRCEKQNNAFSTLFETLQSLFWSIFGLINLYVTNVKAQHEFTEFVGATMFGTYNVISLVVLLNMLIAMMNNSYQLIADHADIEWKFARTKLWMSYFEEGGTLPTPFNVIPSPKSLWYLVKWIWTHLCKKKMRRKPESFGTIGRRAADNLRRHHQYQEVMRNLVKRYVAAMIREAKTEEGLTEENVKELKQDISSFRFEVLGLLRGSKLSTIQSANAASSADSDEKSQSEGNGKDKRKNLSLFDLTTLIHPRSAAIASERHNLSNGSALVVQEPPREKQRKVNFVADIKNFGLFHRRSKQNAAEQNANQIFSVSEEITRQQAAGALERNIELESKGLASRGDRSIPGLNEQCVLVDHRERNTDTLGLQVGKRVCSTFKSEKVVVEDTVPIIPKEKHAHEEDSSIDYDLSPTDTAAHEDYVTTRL

[6] = target: T3, RNA-binding protein pos-1 (Caenorhabditis elegans, UniProt G5EF15); test: disruptors of C. elegans POS-1 RNA interaction – biochemical, fluorescence polarization, dose response (AID 1964);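 further: purified POS-1 fused to maltose binding protein made in E. coli; potency of compounds blocking POS-1 binding to fluorescent RNA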
T3 sequence (G5EF15 whole entry): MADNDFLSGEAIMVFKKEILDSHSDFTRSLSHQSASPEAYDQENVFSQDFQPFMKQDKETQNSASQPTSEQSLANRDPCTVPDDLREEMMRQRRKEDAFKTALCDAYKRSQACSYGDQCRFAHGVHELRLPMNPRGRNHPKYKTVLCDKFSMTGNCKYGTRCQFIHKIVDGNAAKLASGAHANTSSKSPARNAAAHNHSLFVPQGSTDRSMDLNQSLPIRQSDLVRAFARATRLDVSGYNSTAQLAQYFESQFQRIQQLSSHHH

[7] = target: T4, Zinc finger protein mex-5 (Caenorhabditis elegans, UniProt Q9XUB2); test: potency of MEX-5 RNA-binding blockers – biochemical, C. elegans, fluorescence polarization, dose response (AID 1960)
T4 sequence (Q9XUB2 whole entry): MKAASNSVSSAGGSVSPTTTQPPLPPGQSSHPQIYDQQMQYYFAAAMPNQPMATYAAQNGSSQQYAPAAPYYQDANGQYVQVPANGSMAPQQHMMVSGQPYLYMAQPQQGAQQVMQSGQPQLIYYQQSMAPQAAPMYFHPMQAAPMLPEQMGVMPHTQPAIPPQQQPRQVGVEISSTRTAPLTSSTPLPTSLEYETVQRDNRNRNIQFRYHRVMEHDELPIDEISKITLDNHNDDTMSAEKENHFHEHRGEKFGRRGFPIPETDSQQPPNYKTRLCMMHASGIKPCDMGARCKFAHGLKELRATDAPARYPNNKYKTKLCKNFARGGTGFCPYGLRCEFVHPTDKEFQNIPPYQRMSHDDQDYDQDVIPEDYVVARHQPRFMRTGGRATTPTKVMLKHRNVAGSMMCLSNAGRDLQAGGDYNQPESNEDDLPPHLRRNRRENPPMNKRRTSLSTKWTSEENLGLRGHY

Genome polyprotein = Genome polyprotein (dengue virus type 2, UniProt P29990); test: flavivirus cap methylation enzyme inhibition – biochemical, confirmation dose response, primary screen (AID 588689); assay type: functional
Genome polyprotein, sequence (P29990 2492-3391 limits assumed): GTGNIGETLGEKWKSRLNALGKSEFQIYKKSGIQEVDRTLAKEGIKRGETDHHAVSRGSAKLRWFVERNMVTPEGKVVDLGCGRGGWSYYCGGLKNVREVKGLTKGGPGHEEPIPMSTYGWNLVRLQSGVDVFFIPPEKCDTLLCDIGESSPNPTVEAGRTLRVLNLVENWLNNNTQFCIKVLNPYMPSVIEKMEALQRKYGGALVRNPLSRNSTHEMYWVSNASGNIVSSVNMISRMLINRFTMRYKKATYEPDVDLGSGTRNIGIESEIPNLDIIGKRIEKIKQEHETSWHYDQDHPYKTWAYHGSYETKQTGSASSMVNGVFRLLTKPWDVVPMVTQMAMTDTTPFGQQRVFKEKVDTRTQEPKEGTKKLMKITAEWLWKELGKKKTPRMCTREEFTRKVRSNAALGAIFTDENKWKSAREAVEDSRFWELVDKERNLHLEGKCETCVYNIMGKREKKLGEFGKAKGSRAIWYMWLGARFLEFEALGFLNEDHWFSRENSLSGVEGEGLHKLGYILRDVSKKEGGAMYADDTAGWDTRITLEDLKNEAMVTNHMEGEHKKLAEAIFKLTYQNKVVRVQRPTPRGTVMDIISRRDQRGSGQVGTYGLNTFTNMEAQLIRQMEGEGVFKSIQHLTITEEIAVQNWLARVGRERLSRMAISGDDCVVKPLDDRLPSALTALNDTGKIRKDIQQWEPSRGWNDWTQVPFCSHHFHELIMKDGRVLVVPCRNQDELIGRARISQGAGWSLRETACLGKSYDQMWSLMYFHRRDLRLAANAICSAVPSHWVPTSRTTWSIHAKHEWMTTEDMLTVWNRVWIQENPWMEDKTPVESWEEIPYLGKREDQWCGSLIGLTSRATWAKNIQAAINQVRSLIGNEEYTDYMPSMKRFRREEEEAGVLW

[8] = A549 cell cytotoxicity, dose response, cytotoxicity control, plate reader, cherry-pick, antagonist series (AID 743412); assay type: functional, cell-based
[9] = blockers of bursicon-stimulated LGR2 cAMP reporter – cell-based, HEK293, CRE-luciferase reporter, cherry pick, set 2, dose response (AID 743343); assay type: functional;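 further: transfected cells were stimulated with diluted bursicon conditioned medium after compound addition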
[10] = blockade of melanocortin 4 receptor signaling – cell-based, plate reader, cherry pick, counter-screen for LGR2 antagonist project, dose response (AID 743444); assay type: functional;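 further: transfected HEK 293 cells stimulated with alpha-MSH peptide; potency of inhibitors of the alpha-MSH evoked signal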
[11] = Luminescence Cell-Based Dose Retest to Confirm Inhibitors of Cancer Stem Cells. [Related pubchem assays (depositor defined):AID2717, AID2721]; assay type: functional; settings: Homo sapiens
[12] = target: T5, Replicative DNA helicase DnaB (Mycobacterium tuberculosis, UniProt P9WMR3); test: DnaB intein splicing inhibitors, dose response, biochemical, cell-free fluorescence (AID 449749); assay type: functional
T5 sequence (P9WMR3 whole entry): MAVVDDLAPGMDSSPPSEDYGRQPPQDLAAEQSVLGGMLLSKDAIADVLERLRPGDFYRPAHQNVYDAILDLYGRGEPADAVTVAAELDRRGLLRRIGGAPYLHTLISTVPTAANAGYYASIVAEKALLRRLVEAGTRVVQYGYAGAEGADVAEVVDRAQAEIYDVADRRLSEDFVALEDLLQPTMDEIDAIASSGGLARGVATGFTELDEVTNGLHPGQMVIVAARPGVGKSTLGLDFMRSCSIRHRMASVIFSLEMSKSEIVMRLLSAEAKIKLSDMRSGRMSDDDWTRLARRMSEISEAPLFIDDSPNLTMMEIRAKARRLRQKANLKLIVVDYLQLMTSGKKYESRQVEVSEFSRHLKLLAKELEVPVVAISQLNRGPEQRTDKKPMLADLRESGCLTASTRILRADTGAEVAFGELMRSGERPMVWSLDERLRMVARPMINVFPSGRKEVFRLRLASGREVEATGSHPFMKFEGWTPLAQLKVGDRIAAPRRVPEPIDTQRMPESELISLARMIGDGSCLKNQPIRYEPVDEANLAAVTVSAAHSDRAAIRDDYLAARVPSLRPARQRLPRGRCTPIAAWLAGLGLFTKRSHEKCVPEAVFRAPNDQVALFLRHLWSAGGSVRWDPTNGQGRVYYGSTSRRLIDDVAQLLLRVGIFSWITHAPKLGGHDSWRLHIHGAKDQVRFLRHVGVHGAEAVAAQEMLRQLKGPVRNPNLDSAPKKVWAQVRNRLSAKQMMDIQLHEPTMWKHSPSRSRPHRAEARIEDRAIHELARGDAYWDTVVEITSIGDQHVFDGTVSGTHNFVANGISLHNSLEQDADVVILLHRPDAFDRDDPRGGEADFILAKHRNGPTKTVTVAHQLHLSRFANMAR

[13] = Trypanosoma cruzi growth suppression in host cells – NIH3T3 host cells, beta-gal luminescence, confirmation (AID 2044); assay type: functional, cell-based;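 further: intracellular parasites grown in NIH/3T3 mouse fibroblasts as host cells; luminescent beta-galactosidase reporter signal from transgenic T. cruzi replicating inside host cells; inhibitors lower the luminescence signal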
[14] = NIH3T3 cell viability loss – ATP luminescence, mouse fibroblasts, counter-screen, dose response (AID 2010); assay type: functional, cell-based;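 further: cells exposed to compound for about 90 hours before reading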
cells = assay type: functional
H9c2 = test: cells; assay type: functional, cell-based; settings: Rattus norvegicus, H9c2, Myocardium;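 further: confirmatory concentration-response retest of ultra-high-throughput screening hits for modulation of myocardial damage; cell death induced by hydrogen peroxide oxidative stress; compound pretreatment for 60 min then peroxide exposure for 2 h; potency is for protecting the cells against peroxide damage rather than for killing them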
[15] = HIV-1 AD8 envelope cell-cell fusion blockers – cherry-pick, dose response (AID 652062); assay type: functional, cell-based;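 further: luciferase signal from cell-cell fusion driven by HIV-1 clade B AD8 Env; potency is for inhibitors of fusion seen as a drop in luminescence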

CCCCn1nc(C(=O)N[C@@H](CCSC)c2nc3ccccc3[nH]2)c2ccccc2c1=O
CC50 [1]: > 40 µM (active)

CC1CCN(Cc2c(O)ccc3c(O)c(-c4nc5ccccc5s4)c(=N)oc23)CC1
EC50 [2]: 16.6 µM (active)
EC50 [3]: 16.8 µM (active)

CC(=O)N1CCN(c2ccccc2NC(=O)c2cccs2)CC1
EC50 [4]: > 150 µM (not active)
EC50 (Streptokinase A): > 150 µM (not active)
EC50 (Streptococcus): > 150 µM (not active)
EC50 [5]: 1.68 µM (active)

Cn1cc(NC(=O)CCl)cn1
CC50 [1]: > 40 µM (active)

CCOC(=O)C1(CCOC)CCN(C(C)CCc2ccc(OC)cc2)CC1 (configuration not stated)
EC50 [5]: 4.22 µM (active)

CCCc1nc2ccccc2n1Cc1ccccc1OC
EC50 [5]: 6.68 µM (active)

COc1ccc2c(c1)c(=O)oc1cc(OCC(=O)NC3CC3)ccc12
EC50 [2]: 14.1 µM (active)
EC50 [3]: 37.7 µM (active)

COC(=O)Cn1cc(C=C2C(=O)NC(=O)NC2=O)c2ccccc21
EC50 [6]: > 300 µM (not active)
EC50 [7]: > 300 µM (not active)
IC50 (Genome polyprotein): 25.7 µM (active)

CN(C)c1cccc(C(=O)Nc2nc3ccccc3[nH]2)c1
AC50 [8]: > 52 µM (inactive)
AC50 [9]: 6.18 µM (active)
AC50 [10]: 5.96 µM (active)

COc1cc(NS(=O)(=O)c2ccc(N/C=C(\C#N)c3nc4cc(Cl)ccc4o3)cc2)nc(OC)n1
EC50 [2]: 12.7 µM (active)
EC50 [3]: 14.7 µM (active)
AC50 [11]: 2.08 µM (active)

O=C(C1CCC1)N1CCN(S(=O)(=O)c2ccc(Br)cc2Cl)CC1
CC50 [1]: > 40 µM (active)

COc1cc(C=C2C(=O)NC(=O)NC2=O)ccc1OS(=O)(=O)c1ccccc1[N+](=O)[O-]
IC50 (Genome polyprotein): 37.7 µM (active)

O=C1CC(/C=C/c2ccc(Cl)cc2)=Nc2ccccc2N1
CC50 [1]: 23.8 µM (active)

Cc1ccc(N(C(=O)c2snc(C(N)=O)c2N)C(C(=O)NCC2CCCO2)c2ccc(C)o2)c(C)c1 (configuration not stated)
EC50 [5]: 1.68 µM (active)

N=C(Cc1cccc2ccccc12)NOC(=O)c1cccs1
EC50 [5]: 0.596 µM (active)
AC50 [12]: 5.96 µM (active)

O=C1NC(=O)N(CCC2=CCCCC2)C(=O)/C1=C(O)/C=C/c1ccc2c(c1)OCO2
EC50 [2]: 17.1 µM (active)
EC50 [3]: 15 µM (active)
AC50 [11]: 1.37 µM (active)

Cc1sc(C(C2C(=O)CC(C)(C)CC2=O)C2C(=O)CC(C)(C)CC2=O)cc1[N+](=O)[O-]
IC50 (Genome polyprotein): 29.4 µM (active)

O=C(NC1CCCCC1)C(c1cccs1)N(CCCN1CCOCC1)C(=O)c1ccc(-c2ccccc2)[nH]1 (configuration not stated)
CC50 [1]: > 40 µM (active)

CC(C)OC(=O)CCCCCN1C(=O)CSC1=S
EC50 [13]: 4.77 µM (active)
CC50 [1]: 31.3 µM (active)
EC50 [14]: 8.46 µM (active)
IC50 (cells): 6.29 µM (active)

O=[N+]([O-])c1cccc(N(CC(O)CN2CCCC2)S(=O)(=O)c2ccccc2)c1 (configuration not stated)
EC50 [5]: 10.6 µM (active)

CNC(=O)c1ccc(-c2sc3nc(N4CCOCC4)c4c(c3c2N)CCCC4)o1
EC50 [2]: 23.5 µM (active)
EC50 [3]: 24.6 µM (active)
IC50 (H9c2): 14.2 µM (active)

CCc1cnc(N2[C@H](C#N)[C@H](c3ccc(C#Cc4ccccc4F)cc3)[C@H]2CO)s1
AC50 [15]: 33.6 µM (active)

Cc1ccc(/C=C/C(=O)c2ccc(O)cc2)cc1
EC50 [5]: 3.35 µM (active)
